# Assay results published in ChEMBL document CHEMBL3885881, “DrugMatrix”.
# Species: Rattus norvegicus
# Experiment: DrugMatrix - Regimen: Daily Repeat
# Format: toxicity, organism-based, Sprague-Dawley
# Parameters: regimen Daily Repeat, gender Male, age 6-8 weeks
# Settings: in vivo, po, route oral GAVAGE, […]; for ABSOLUTE BASOPHIL / ABSOLUTE EOSINOPHIL / ABSOLUTE LYMPHOCYTE / ABSOLUTE MONOCYTE / ABSOLUTE SEGMENTED NEUTROPHIL / BASOPHIL / EOSINOPHIL / ERYTHROCYTE COUNT / HEMATOCRIT / HEMOGLOBIN / LEUKOCYTE COUNT / LYMPHOCYTE / MEAN CORPUSCULAR HEMOGLOBIN / MEAN CORPUSCULAR HEMOGLOBIN CONCENTRATION / MEAN CORPUSCULAR VOLUME / MONOCYTE / NEUTROPHIL / NUCLEATED RED BLOOD CELLS / PLATELET COUNT: tissue Blood; for ALANINE AMINOTRANSFERASE / ALBUMIN / ALKALINE PHOSPHATASE / ASPARTATE AMINOTRANSFERASE / BLOOD UREA NITROGEN / CARBON DIOXIDE / CHLORIDE / CHOLESTEROL / CREATINE PHOSPHOKINASE / CREATININE / GLUCOSE / LACTATE DEHYDROGENASE / LIPASE / PHOSPHORUS / POTASSIUM / SODIUM / TOTAL BILIRUBIN / TOTAL PROTEIN / URIC ACID: tissue Plasma
# [1] = 0 mg/kg, 72 h, dose level Control, time 3 day
# [2] = 0 mg/kg, 120 h, dose level Control, time 5 day
# [3] = 1 mg/kg, 72 h, dose level Low, time 3 day
smiles,measurement,setting,value
O=C(O)COC(=O)Cc1ccccc1Nc1c(Cl)cccc1Cl [ACECLOFENAC],ABSOLUTE BASOPHIL,[1],0 CELLS/uL
same,ABSOLUTE EOSINOPHIL,[1],0 CELLS/uL
same,ABSOLUTE LYMPHOCYTE,[1],9244.83 CELLS/uL
same,ABSOLUTE MONOCYTE,[1],102 CELLS/uL
same,ABSOLUTE SEGMENTED NEUTROPHIL,[1],869.83 CELLS/uL
same,BASOPHIL,[1],0%
same,EOSINOPHIL,[1],0%
same,ERYTHROCYTE COUNT,[1],5.43 x10E6/uL
same,HEMATOCRIT,[1],34.03%
same,HEMOGLOBIN,[1],13.27 G/DL
same,LEUKOCYTE COUNT,[1],10.22 x10E3/uL
same,LYMPHOCYTE,[1],90.33%
same,MEAN CORPUSCULAR HEMOGLOBIN,[1],24.48 pg
same,MEAN CORPUSCULAR HEMOGLOBIN CONCENTRATION,[1],39.03 G/DL
same,MEAN CORPUSCULAR VOLUME,[1],62.75 fL
same,MONOCYTE,[1],1%
same,NEUTROPHIL,[1],8.67%
same,NUCLEATED RED BLOOD CELLS,[1],0.17 /100WBC
same,PLATELET COUNT,[1],989 x10E3/uL
same,ALANINE AMINOTRANSFERASE,[1],77 u/L
same,ALBUMIN,[1],3.97 G/DL
same,ALKALINE PHOSPHATASE,[1],464.83 u/L
same,ASPARTATE AMINOTRANSFERASE,[1],89.83 u/L
same,BLOOD UREA NITROGEN,[1],12.17 mg/dL
same,CARBON DIOXIDE,[1],34.17 mmol/L
same,CHLORIDE,[1],98.33 MEQ/L
same,CHOLESTEROL,[1],75.17 mg/dL
same,CREATINE PHOSPHOKINASE,[1],367.67 u/L
same,CREATININE,[1],0.16 mg/dL
same,GLUCOSE,[1],142.67 mg/dL
same,LACTATE DEHYDROGENASE,[1],139.33 u/L
same,LIPASE,[1],9.5 u/L
same,PHOSPHORUS,[1],10.85 mg/dL
same,POTASSIUM,[1],6.38 MEQ/L
same,SODIUM,[1],143.2 MEQ/L
same,TOTAL BILIRUBIN,[1],0.2 mg/dL
same,TOTAL PROTEIN,[1],5.77 G/DL
same,URIC ACID,[1],0.7 mg/dL
same,ABSOLUTE BASOPHIL,[2],0 CELLS/uL
same,ABSOLUTE EOSINOPHIL,[2],0 CELLS/uL
same,ABSOLUTE LYMPHOCYTE,[2],8295.33 CELLS/uL
same,ABSOLUTE MONOCYTE,[2],84.67 CELLS/uL
same,ABSOLUTE SEGMENTED NEUTROPHIL,[2],970 CELLS/uL
same,BASOPHIL,[2],0%
same,EOSINOPHIL,[2],0%
same,ERYTHROCYTE COUNT,[2],5.74 x10E6/uL
same,HEMATOCRIT,[2],36.22%
same,HEMOGLOBIN,[2],13.85 G/DL
same,LEUKOCYTE COUNT,[2],9.35 x10E3/uL
same,LYMPHOCYTE,[2],88.67%
same,MEAN CORPUSCULAR HEMOGLOBIN,[2],24.13 pg
same,MEAN CORPUSCULAR HEMOGLOBIN CONCENTRATION,[2],38.25 G/DL
same,MEAN CORPUSCULAR VOLUME,[2],63.08 fL
same,MONOCYTE,[2],1%
same,NEUTROPHIL,[2],10.33%
same,NUCLEATED RED BLOOD CELLS,[2],0.17 /100WBC
same,PLATELET COUNT,[2],883.83 x10E3/uL
same,ALANINE AMINOTRANSFERASE,[2],64.5 u/L
same,ALBUMIN,[2],4.12 G/DL
same,ALKALINE PHOSPHATASE,[2],425.67 u/L
same,ASPARTATE AMINOTRANSFERASE,[2],88.5 u/L
same,BLOOD UREA NITROGEN,[2],14.17 mg/dL
same,CARBON DIOXIDE,[2],30.5 mmol/L
same,CHLORIDE,[2],100.33 MEQ/L
same,CHOLESTEROL,[2],55.33 mg/dL
same,CREATINE PHOSPHOKINASE,[2],287.17 u/L
same,CREATININE,[2],0.2 mg/dL
same,GLUCOSE,[2],162.83 mg/dL
same,LACTATE DEHYDROGENASE,[2],111.33 u/L
same,LIPASE,[2],10.5 u/L
same,PHOSPHORUS,[2],10.32 mg/dL
same,POTASSIUM,[2],5.13 MEQ/L
same,SODIUM,[2],143.93 MEQ/L
same,TOTAL BILIRUBIN,[2],0.17 mg/dL
same,TOTAL PROTEIN,[2],5.9 G/DL
same,URIC ACID,[2],0.77 mg/dL
same,ABSOLUTE BASOPHIL,[3],0 CELLS/uL
same,ABSOLUTE EOSINOPHIL,[3],34 CELLS/uL
same,ABSOLUTE LYMPHOCYTE,[3],11265.67 CELLS/uL
same,ABSOLUTE MONOCYTE,[3],0 CELLS/uL
same,ABSOLUTE SEGMENTED NEUTROPHIL,[3],933.67 CELLS/uL
same,BASOPHIL,[3],0%
same,EOSINOPHIL,[3],0.33%
same,ERYTHROCYTE COUNT,[3],5.17 x10E6/uL
same,HEMATOCRIT,[3],32.3%
same,HEMOGLOBIN,[3],12.7 G/DL
same,LEUKOCYTE COUNT,[3],12.23 x10E3/uL
same,LYMPHOCYTE,[3],92.33%
same,MEAN CORPUSCULAR HEMOGLOBIN,[3],24.6 pg
same,MEAN CORPUSCULAR HEMOGLOBIN CONCENTRATION,[3],39.37 G/DL
same,MEAN CORPUSCULAR VOLUME,[3],62.53 fL
same,MONOCYTE,[3],0%
same,NEUTROPHIL,[3],7.33%
same,NUCLEATED RED BLOOD CELLS,[3],0 /100WBC
same,PLATELET COUNT,[3],1096 x10E3/uL
same,ALANINE AMINOTRANSFERASE,[3],63.33 u/L
same,ALBUMIN,[3],4.13 G/DL
same,ALKALINE PHOSPHATASE,[3],435.67 u/L
same,ASPARTATE AMINOTRANSFERASE,[3],81.67 u/L
same,BLOOD UREA NITROGEN,[3],12.33 mg/dL
same,CARBON DIOXIDE,[3],33 mmol/L
same,CHLORIDE,[3],98 MEQ/L
same,CHOLESTEROL,[3],77.33 mg/dL
same,CREATINE PHOSPHOKINASE,[3],224.33 u/L
same,CREATININE,[3],0.13 mg/dL
same,GLUCOSE,[3],132.33 mg/dL
same,LACTATE DEHYDROGENASE,[3],137.33 u/L
same,LIPASE,[3],9.67 u/L
same,PHOSPHORUS,[3],11.77 mg/dL
same,POTASSIUM,[3],6.44 MEQ/L
same,SODIUM,[3],143.43 MEQ/L
same,TOTAL BILIRUBIN,[3],0.2 mg/dL
same,TOTAL PROTEIN,[3],5.9 G/DL
same,URIC ACID,[3],0.77 mg/dL
